Source: patent publication US20150105377A1, “Methods and Compositions for RAF Kinase Mediated Diseases” (ARIAD Pharmaceuticals, Inc., priority 2012, published 2015)

Columns and labels:
C-RAF = target: T1, C-RAF (Homo sapiens, UniProt P04049); test: Kinase inhibition assay (Reaction Biology Corporation); format: biochemical; conditions: 10 μM ATP, 10-point curve
T1 construct: purchased Reaction Biology Corporation (Malvern, Pa.), contract assay service

[1] = test system: MEK or ERK1/2 phosphorylation in SH-4 BRAF V600E mutant melanoma cancer cells; test: Immunoblot analysis of BRAF signaling; format: cell-based; conditions: SH-4 cells, FIG. 2B
Protocol: (§1) Cells were lysed in SDS lysis buffer (0.06 M Tris-HCL. 1% SDS and 10% glycerol) and protein concentration was determined using a BCA Protein assay (Thermo Scientific). Cellular lysates ([…]) were resolved by electrophoresis and transferred to nitrocellulose membranes using NuPage Novex reagents (Invitrogen). Membranes were immunoblotted with the indicated antibodies (Cell Signaling Technology) and then exposed to Supersignal ELISA femto maximum sensitivity substrate (Thermo Scientific) to generate a chemiluminescent signal.

[2] = test system: MEK or ERK1/2 phosphorylation in HT-29 BRAF V600E mutant colorectal cancer cells; test: Immunoblot analysis of BRAF signaling; format: cell-based; conditions: HT-29 cells, FIG. 4B
Protocol: as §1

[3] = test system: MEK or ERK1/2 phosphorylation in A375 BRAF V600E mutant melanoma cancer cells; test: Immunoblot analysis of BRAF signaling; format: cell-based; conditions: FIG. 1B
Protocol: as §1

[4] = test system: A375 BRAF V600E melanoma cell line; test: Cell growth assay; format: cell-based; conditions: Homo sapiens, A-375, read-out: Ponatinib GI50 (nM), 72 hours
Protocol: (§2) Cell growth was assessed using the Cell Titer 96 Aqueous One Solution Cell Proliferation Assay (Promega) and absorbance was measured using a Wallac Victor microplate reader (PerkinElmer). To differentiate between a cytostatic and cytotoxic drug effect, the concentration that causes 50% growth inhibition (GI50) was determined by correcting for the cell count at time zero (time of treatment) and plotting data as percent growth relative to vehicle-treated cells using XLfit version 5.2.0 for Microsoft Excel. Data are shown as mean from 3 independent experiments performed in triplicate.

[5] = test system: SK-MEL-24 BRAF V600E melanoma cell line; test: Cell growth assay; format: cell-based; conditions: Homo sapiens, read-out: Ponatinib GI50 (nM), SK-MEL-24, Melanoma, 72 hours
Protocol: as §2

[6] = test system: SH-4 BRAF V600E melanoma cell line; test: Cell growth assay; format: cell-based; conditions: Homo sapiens, read-out: Ponatinib GI50 (nM), SH-4, Melanoma, 72 hours
Protocol: as §2

[7] = test system: HT-29 BRAF V600E colorectal cancer cell line; test: Cell growth assay; format: cell-based; conditions: Homo sapiens, read-out: Ponatinib GI50 (nM), HT-29, Colorectal, 72 hours
Protocol: as §2

[8] = test system: CHL-1 BRAF wt melanoma cell line; test: Cell growth assay (automated cell line screening, Ricerca Biosciences); format: cell-based; conditions: Homo sapiens, read-out: Ponatinib GI50 (nM), CHL-1, Melanoma, tested by Ricerca Biosciences
Protocol: as §2
(§3) Cell growth assays were also performed as part of an automated cell line screening assay (Ricerca Biosciences, LLC, Bothell, Wash., USA). Experimental procedures are similar to those described above.

[9] = test system: C32 BRAF V600E het melanoma cell line; test: as above; format: cell-based; conditions: Homo sapiens, read-out: Ponatinib GI50 (nM), tested by Ricerca Biosciences
Protocol: as §2, §3

T1 sequence (P04049 whole entry): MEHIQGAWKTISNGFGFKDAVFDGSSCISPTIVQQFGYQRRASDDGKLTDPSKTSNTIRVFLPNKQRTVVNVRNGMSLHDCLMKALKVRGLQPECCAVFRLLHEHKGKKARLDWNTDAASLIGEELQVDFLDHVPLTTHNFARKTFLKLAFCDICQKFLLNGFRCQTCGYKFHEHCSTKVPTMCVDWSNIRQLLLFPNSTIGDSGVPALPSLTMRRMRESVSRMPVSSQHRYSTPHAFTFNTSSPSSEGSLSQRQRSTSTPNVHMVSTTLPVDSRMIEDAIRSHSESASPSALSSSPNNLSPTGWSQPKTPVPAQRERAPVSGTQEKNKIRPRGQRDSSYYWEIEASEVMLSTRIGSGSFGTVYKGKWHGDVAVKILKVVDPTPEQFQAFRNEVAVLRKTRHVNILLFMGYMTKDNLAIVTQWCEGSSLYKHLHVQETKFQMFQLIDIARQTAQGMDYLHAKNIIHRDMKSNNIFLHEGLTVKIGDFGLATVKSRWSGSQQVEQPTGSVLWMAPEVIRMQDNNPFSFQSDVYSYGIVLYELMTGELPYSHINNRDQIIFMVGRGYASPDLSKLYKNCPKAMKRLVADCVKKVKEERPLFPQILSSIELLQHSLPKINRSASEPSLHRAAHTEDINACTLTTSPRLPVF

Row | IC50 (C-RAF; Table 2) [nM] | Structure (SMILES) | other results
1 | 14.4 | CC(C)N1CCN(Cc2ccc(NC(=O)c3cncc(C#Cc4cnc5cnccn45)c3)cc2C(F)(F)F)CC1 | 
2 | 83.1 | Cc1ccc(C(=O)Nc2cc(CN3CCOCC3)cc(C(F)(F)F)c2)cc1C#Cc1cnc2ccccn12 | 
3 | 4.27 | Cc1ccc(C(=O)Nc2cc(C(C)(C)C)on2)cc1C#Cc1cnc2cccnn12 | 
4 |  | CC(=O)Nc1cccn2c(C#Cc3cc(C(=O)Nc4cc(C(F)(F)F)ccn4)ccc3C)cnc12 [Example 10, 3-((8-Acetamidoimidazo[1,2-a]pyridin-3-yl)ethynyl)-4-methyl-N-(4-(trifluoromethyl)pyridin-2-yl)benzamide] | IC50 (C-RAF; Table 1): 2.42 nM
5 | 7.3 | CC(=O)Nc1cccn2c(C#Cc3cc(C(=O)Nc4cccc(C(F)(F)F)c4)ccc3C)cnc12 | 
6 | 8.5 | Cc1ccc(C(=O)Nc2cc(-c3cncnc3)cc(C(F)(F)F)c2)cc1C#Cc1cnc2cccnn12 | 
7 |  | Cc1ccc(C(=O)Nc2ccc(CN3CCN(C)CC3)c(C(F)(F)F)c2)cc1C#Cc1cnc2cccnn12 [Ponatinib, 3-(Imidazo[1,2-b]pyridazin-3-ylethynyl)-4-methyl-N-(4-((4-methylpiperazin-1-yl)methyl)-3-(trifluoromethyl)phenyl)benzamide] | MEK or ERK1/2 phosphorylation [1]: inhibit; MEK or ERK1/2 phosphorylation [2]: inhibit; MEK or ERK1/2 phosphorylation [3]: inhibit; GI50 [4]: 372 nM; GI50 [5]: 767 nM; GI50 [6]: 85.6 nM; GI50 [7]: 354 nM; GI50 [8]: 88.5 nM; GI50 [9]: 107 nM
8 | 3.96 | CN1CCN(Cc2ccc(NC(=O)c3cccc(C#Cc4cnc5cnccn45)c3)cc2Cl)CC1 | 
9 | 26.7 | CN1CCN(Cc2ccc(NC(=O)c3cccc(C#Cc4cnc5ccccn45)c3)cc2C(F)(F)F)CC1 | 
10 | 24.3 | Cc1ccc(C(=O)Nc2cc(C(F)(F)F)ccc2NCCN2CCCC2)cc1C#Cc1cnc2ccccn12 | 
11 | 3.12 | Cc1ccc(NC(=O)c2ccc3ccn(C)c3c2)cc1C#Cc1cnc2cccnn12 | 
12 | 9.22 | Cc1ccc(C(=O)Nc2cc(-n3ccnc3CN(C)C)cc(C(F)(F)F)c2)cc1C#Cc1cnc2cnccn12 | 
13 | 4.78 | Cc1ccc(C(=O)Nc2cc(C(F)(F)F)ccn2)cc1C#Cc1cnc2c(N)cccn12 | 
14 | 2.07 | O=C(Nc1cccc(C(F)(F)F)c1)c1cncc(C#Cc2cnc3cccnn23)c1 | 
15 | 2.49 | Cc1cnc(NC(=O)c2ccc(C)c(C#Cc3cnc4c(NC(N)=O)cccn34)c2)s1 | 
16 | 5.09 | CC(=O)Nc1cccn2c(C#Cc3cc(NC(=O)Nc4cc(C(F)(F)F)ccn4)ccc3C)cnc12 | 
17 |  | Cc1ccc(C(=O)Nc2ccc(CN3CCN(C)CC3)c(C(F)(F)F)c2)cc1C#Cc1cnc2cnccn12 [Example 2, 3-(Imidazo[1,2-a]pyrazin-3-ylethynyl)-4-methyl-N-(4-((4-methylpiperazin-1-yl)methyl)-3-(trifluoromethyl)phenyl)benzamide] | IC50 (C-RAF; Table 1): 2.13 nM
18 | 2940 | Cc1cc(C#Cc2cnc3cccnn23)cc(C(=O)Nc2cccc(C(F)(F)F)c2)c1 | 
19 | 14.4 | Cc1ccc(C(=O)Nc2cc(N(C)CCO)cc(C(F)(F)F)c2)cc1C#Cc1cnc2cccnn12 | 
20 |  | Cc1ccc(NC(=O)c2ccc(CN3CCN(C)CC3)c(C(F)(F)F)c2)cc1C#Cc1cnc2cccnn12 [Example 15, N-(3-(Imidazo[1,2-b]pyridazin-3-ylethynyl)-4-methylphenyl)-4-((4-methylpiperazin-1-yl)methyl)-3-(trifluoromethyl)benzamide] | IC50 (C-RAF; Table 1): 12.2 nM

Row | IC50 (C-RAF; Table 2) [nM] | Structure (SMILES) | other results
21 | 9.19 | Cc1ccc(C(=O)Nc2cc(-n3cnc(CN4CCCC4)c3)cc(C(F)(F)F)c2)cc1C#Cc1cnc2cccnn12 | 
22 | 5.8 | Cc1ccc(-c2nc3cc(C(F)(F)F)ccc3[nH]2)cc1C#Cc1cnc2cccnn12 | 
23 | 1.45 | Cc1ccc(C(=O)Nc2cccc(C(F)(F)F)c2)cc1C#Cc1cnc2cccnn12 | 
24 | 2.76 | Cc1ccc(F)c(NC(=O)c2ccc(C)c(C#Cc3cnc4cccnn34)c2)c1 | 
25 | 57.3 | Cc1ccc(C(=O)Nc2ccc(C#N)c(C(F)(F)F)c2)cc1C#Cc1cnc2ccccn12 | 
26 | 3.91 | Cc1ccc(C(=O)Nc2ccc(CC(=N)N)c(C(F)(F)F)c2)cc1C#Cc1cnc2cccnn12 | 
27 | 29.5 | CNC(=O)CNc1ccc(NC(=O)c2ccc(C)c(C#Cc3cnc4ccccn34)c2)cc1C(F)(F)F | 
28 | 10.7 | Cc1ccc(C(=O)Nc2ccc(Cl)cc2)cc1C#Cc1cnc2cccnn12 | 
29 | 12.7 | Cc1ccc(C(=O)Nc2cc(-n3ccnc3)cc(C(F)(F)F)c2)cc1C#Cc1cnc2c(NC(N)=O)cccn12 | 
30 | 51.7 | CN1CCN(Cc2ccc(NC(=O)c3ccc(F)c(C#Cc4cnc5ccccn45)c3)cc2C(F)(F)F)CC1 | 
31 | 998 | Cc1ccc(C(=O)Nc2cc(-n3cnc(C#N)c3)cc(C(F)(F)F)c2)cc1C#Cc1cnc2ccccn12 | 
32 | 60.2 | Cc1ccc(C(=O)Nc2ccc(CN3CCCC3)c(C(F)(F)F)c2)cc1C#Cc1cnc2ccccn12 | 
33 |  | Cc1ccc(C(=O)Nc2ccc(CN3CCN(C)CC3)c(C(F)(F)F)c2)cc1C#Cc1cnc2ccccn12 [Example 8, 3-(Imidazo[1,2-a]pyridin-3-ylethynyl)-4-methyl-N-(4-((4-methylpiperazin-1-yl)methyl)-3-(trifluoromethyl)phenyl)benzamide] | IC50 (C-RAF; Table 1): 26 nM
34 | 3.84 | Cc1ccc(C(=O)Nc2cc(-n3cnc(CN(C)C)c3)cc(C(F)(F)F)c2)cc1C#Cc1cnc2cccnn12 | 
35 | 5.43 | Cc1ccc(C(=O)Nc2ccc(CN3CCOCC3)c(C(F)(F)F)c2)cc1C#Cc1cnc2cnccn12 | 
36 | 4.39 | Cc1ccc(C(=O)Nc2ccc(C(F)(F)F)cc2)cc1C#Cc1cnc2cccnn12 | 
37 | 17.2 | Cc1ccc(C(=O)Nc2cc(N3CCOCC3)cc(C(F)(F)F)c2)cc1C#Cc1cnc2cccnn12 | 
38 | 25.6 | CN1CCN(Cc2ccc(NC(=O)c3cncc(C#Cc4cnc5cccnn45)c3)cc2Cl)CC1 | 
39 | 51.1 | Cc1ccc(C(=O)Nc2cc(-n3ccnc3)cc(C(F)(F)F)c2)cc1C#Cc1cnc2c(N)cccn12 | 
